ChEMBL document CHEMBL3758169, “4-Aminoindazolyl-dihydrofuro[3,4-d]pyrimidines as non-covalent inhibitors of mutant epidermal growth factor receptor tyrosine kinase” (Bioorg Med Chem Lett, 2016)

Experiments:
[1] = target: Tyrosine-protein kinase CSK (Homo sapiens) (UniProt P41240); assay: Inhibition of CSK (unknown origin) at 100 nM
[2] = target: Phosphatidylinositol 4-kinase alpha (Homo sapiens) (UniProt P42356); assay: Inhibition of PI4Ka (unknown origin) at 100 nM
[3] = target: Fibroblast growth factor receptor 4 (Homo sapiens) (UniProt P22455); assay: Inhibition of FGFR4 (unknown origin) at 100 nM
[4] = target: 5'-AMP-activated protein kinase catalytic subunit alpha-2 (Homo sapiens) (UniProt P54646); assay: Inhibition of PRKAA2 (unknown origin) at 100 nM
[5] = target: Mitogen-activated protein kinase 14 (Homo sapiens) (UniProt Q16539); assay: Inhibition of p38alpha (unknown origin) at 100 nM
[6] = target: DNA-dependent protein kinase catalytic subunit (Homo sapiens) (UniProt P78527); assay: Inhibition of DNA-PK (unknown origin) at 100 nM
[7] = target: SRSF protein kinase 1 (Homo sapiens) (UniProt Q96SB4); assay: Inhibition of SRPK1 (unknown origin) at 100 nM
[8] = target: Muscle, skeletal receptor tyrosine-protein kinase (Homo sapiens) (UniProt O15146); assay: Inhibition of MUSK (unknown origin) at 100 nM
[9] = target: Vascular endothelial growth factor receptor 1 (Homo sapiens) (UniProt P17948); assay: Inhibition of FLT1 (unknown origin) at 100 nM
[10] = target: Interleukin-1 receptor-associated kinase 1 (Homo sapiens) (UniProt P51617); assay: Inhibition of IRAK1 (unknown origin) at 100 nM
[11] = target: Megakaryocyte-associated tyrosine-protein kinase (Homo sapiens) (UniProt P42679); assay: Inhibition of Hyl (unknown origin) at 100 nM
[12] = target: Mitogen-activated protein kinase 3 (Homo sapiens) (UniProt P27361); assay: Inhibition of ERK1 (unknown origin) at 100 nM
[13] = target: Serine/threonine-protein kinase 24 (Homo sapiens) (UniProt Q9Y6E0); assay: Inhibition of MST3 (unknown origin) at 100 nM
Homo sapiens = species: Homo sapiens; assay: Inhibition of MET I250T mutant (unknown origin) at 100 nM
[14] = target: Serine/threonine-protein kinase Chk2 (Homo sapiens) (UniProt O96017); assay: Inhibition of CHK2 (unknown origin) at 100 nM
[15] = target: Protein kinase C epsilon type (Homo sapiens) (UniProt Q02156); assay: Inhibition of PKCepsilon (unknown origin) at 100 nM
[16] = target: Homeodomain-interacting protein kinase 4 (Homo sapiens) (UniProt Q8NE63); assay: Inhibition of HIPK4 (unknown origin) at 100 nM
[17] = target: Discoidin domain-containing receptor 2 (Homo sapiens) (UniProt Q16832); assay: Inhibition of DDR2 (unknown origin) at 100 nM
[18] = target: Testis-specific serine/threonine-protein kinase 1 (Homo sapiens) (UniProt Q9BXA7); assay: Inhibition of TSSK1 (unknown origin) at 100 nM
[19] = target: Rhodopsin kinase GRK7 (Homo sapiens) (UniProt Q8WTQ7); assay: Inhibition of GRK7 (unknown origin) at 100 nM
[20] = target: Serine/threonine-protein kinase PAK 2 (Homo sapiens) (UniProt Q13177); assay: Inhibition of PAK2 (unknown origin) at 100 nM
[21] = target: Phosphatidylinositol 4-phosphate 3-kinase C2 domain-containing subunit beta (Homo sapiens) (UniProt O00750); assay: Inhibition of PI3KC2b (unknown origin) at 100 nM
[22] = target: Dual specificity tyrosine-phosphorylation-regulated kinase 4 (Homo sapiens) (UniProt Q9NR20); assay: Inhibition of DYRK4 (unknown origin) at 100 nM
[23] = target: Dual specificity mitogen-activated protein kinase kinase 2 (Homo sapiens) (UniProt P36507); assay: Inhibition of MEK2 (unknown origin) at 100 nM
[24] = target: Phosphatidylinositol 3-kinase catalytic subunit type 3 (Homo sapiens) (UniProt Q8NEB9); assay: Inhibition of PI3KC3/hVPS34 (unknown origin) at 100 nM
[25] = target: Casein kinase II subunit alpha' (Homo sapiens) (UniProt P19784); assay: Inhibition of CK2alpha2 (unknown origin) at 100 nM
[26] = target: MAP/microtubule affinity-regulating kinase 4 (Homo sapiens) (UniProt Q96L34); assay: Inhibition of MARK4 (unknown origin) at 100 nM
[27] = target: MAP kinase-activated protein kinase 3 (Homo sapiens) (UniProt Q16644); assay: Inhibition of MAPKAPK3 (unknown origin) at 100 nM
[28] = target: Mitogen-activated protein kinase kinase kinase kinase 5 (Homo sapiens) (UniProt Q9Y4K4); assay: Inhibition of KHS1 (unknown origin) at 100 nM
[29] = target: Serine/threonine-protein kinase 17A (Homo sapiens) (UniProt Q9UEE5); assay: Inhibition of DRAK1 (unknown origin) at 100 nM
[30] = target: G protein-coupled receptor kinase 6 (Homo sapiens) (UniProt P43250); assay: Inhibition of GRK6 (unknown origin) at 100 nM
[31] = target: Phosphatidylinositol 4,5-bisphosphate 3-kinase catalytic subunit gamma isoform (Homo sapiens) (UniProt P48736); assay: Inhibition of PI3KG (unknown origin) at 100 nM
[32] = target: Maternal embryonic leucine zipper kinase (Homo sapiens) (UniProt Q14680); assay: Inhibition of MELK (unknown origin) at 100 nM
[33] = target: Fibroblast growth factor receptor 2 (Homo sapiens) (UniProt P21802); assay: Inhibition of FGFR2 (unknown origin) at 100 nM
[34] = target: LIM domain kinase 1 (Homo sapiens) (UniProt P53667); assay: Inhibition of LIMK1 (unknown origin) at 100 nM
[35] = target: Beta-adrenergic receptor kinase 1 (Homo sapiens) (UniProt P25098); assay: Inhibition of GRK2 (unknown origin) at 100 nM
[36] = target: Dual specificity tyrosine-phosphorylation-regulated kinase 3 (Homo sapiens) (UniProt O43781); assay: Inhibition of DYRK3 (unknown origin) at 100 nM
[37] = target: Misshapen-like kinase 1 (Homo sapiens) (UniProt Q8N4C8); assay: Inhibition of MINK1 (unknown origin) at 100 nM
[38] = target: Serine/threonine-protein kinase 3 (Homo sapiens) (UniProt Q13188); assay: Inhibition of MST2 (unknown origin) at 100 nM
[39] = target: Tyrosine-protein kinase JAK3 (Homo sapiens) (UniProt P52333); assay: Inhibition of JAK3 (unknown origin) at 100 nM
[40] = target: Myotonin-protein kinase (Homo sapiens) (UniProt Q09013); assay: Inhibition of DMPK (unknown origin) at 100 nM
[41] = target: Ephrin type-B receptor 1 (Homo sapiens) (UniProt P54762); assay: Inhibition of EPHB1 (unknown origin) at 100 nM
[42] = target: Dual specificity mitogen-activated protein kinase kinase 3 (Homo sapiens) (UniProt P46734); assay: Inhibition of MEK3 (unknown origin) at 100 nM

Tyrosine-protein kinase JAK3 (Homo sapiens), sequence (P52333 whole entry): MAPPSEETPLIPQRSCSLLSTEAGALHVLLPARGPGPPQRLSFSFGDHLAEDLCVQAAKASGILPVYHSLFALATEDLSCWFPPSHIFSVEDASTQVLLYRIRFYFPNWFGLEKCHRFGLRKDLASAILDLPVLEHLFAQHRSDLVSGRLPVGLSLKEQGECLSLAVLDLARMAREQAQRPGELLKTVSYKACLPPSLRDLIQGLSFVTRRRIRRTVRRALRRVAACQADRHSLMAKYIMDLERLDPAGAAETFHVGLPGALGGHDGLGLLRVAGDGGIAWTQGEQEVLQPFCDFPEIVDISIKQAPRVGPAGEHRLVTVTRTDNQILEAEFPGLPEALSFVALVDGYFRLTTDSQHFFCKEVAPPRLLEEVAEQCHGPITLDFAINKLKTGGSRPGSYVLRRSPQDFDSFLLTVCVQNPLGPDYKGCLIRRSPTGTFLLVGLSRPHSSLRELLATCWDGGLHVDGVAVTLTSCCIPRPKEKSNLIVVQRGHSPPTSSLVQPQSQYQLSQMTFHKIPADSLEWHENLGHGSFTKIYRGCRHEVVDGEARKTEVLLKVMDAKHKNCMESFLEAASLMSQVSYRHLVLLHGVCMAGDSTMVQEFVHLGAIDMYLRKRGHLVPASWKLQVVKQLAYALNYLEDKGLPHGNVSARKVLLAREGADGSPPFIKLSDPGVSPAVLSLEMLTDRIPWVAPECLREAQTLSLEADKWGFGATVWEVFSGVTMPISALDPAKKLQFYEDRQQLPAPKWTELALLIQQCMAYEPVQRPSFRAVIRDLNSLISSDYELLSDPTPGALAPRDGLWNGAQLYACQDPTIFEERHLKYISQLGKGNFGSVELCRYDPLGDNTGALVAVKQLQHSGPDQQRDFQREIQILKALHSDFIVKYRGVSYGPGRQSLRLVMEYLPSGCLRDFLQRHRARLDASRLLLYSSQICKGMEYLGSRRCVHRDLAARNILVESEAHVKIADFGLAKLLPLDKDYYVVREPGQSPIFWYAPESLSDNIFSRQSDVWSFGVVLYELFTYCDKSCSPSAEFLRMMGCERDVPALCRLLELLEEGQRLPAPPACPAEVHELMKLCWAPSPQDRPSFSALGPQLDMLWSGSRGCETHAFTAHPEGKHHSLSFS
Phosphatidylinositol 3-kinase catalytic subunit type 3 (Homo sapiens), sequence (Q8NEB9 whole entry): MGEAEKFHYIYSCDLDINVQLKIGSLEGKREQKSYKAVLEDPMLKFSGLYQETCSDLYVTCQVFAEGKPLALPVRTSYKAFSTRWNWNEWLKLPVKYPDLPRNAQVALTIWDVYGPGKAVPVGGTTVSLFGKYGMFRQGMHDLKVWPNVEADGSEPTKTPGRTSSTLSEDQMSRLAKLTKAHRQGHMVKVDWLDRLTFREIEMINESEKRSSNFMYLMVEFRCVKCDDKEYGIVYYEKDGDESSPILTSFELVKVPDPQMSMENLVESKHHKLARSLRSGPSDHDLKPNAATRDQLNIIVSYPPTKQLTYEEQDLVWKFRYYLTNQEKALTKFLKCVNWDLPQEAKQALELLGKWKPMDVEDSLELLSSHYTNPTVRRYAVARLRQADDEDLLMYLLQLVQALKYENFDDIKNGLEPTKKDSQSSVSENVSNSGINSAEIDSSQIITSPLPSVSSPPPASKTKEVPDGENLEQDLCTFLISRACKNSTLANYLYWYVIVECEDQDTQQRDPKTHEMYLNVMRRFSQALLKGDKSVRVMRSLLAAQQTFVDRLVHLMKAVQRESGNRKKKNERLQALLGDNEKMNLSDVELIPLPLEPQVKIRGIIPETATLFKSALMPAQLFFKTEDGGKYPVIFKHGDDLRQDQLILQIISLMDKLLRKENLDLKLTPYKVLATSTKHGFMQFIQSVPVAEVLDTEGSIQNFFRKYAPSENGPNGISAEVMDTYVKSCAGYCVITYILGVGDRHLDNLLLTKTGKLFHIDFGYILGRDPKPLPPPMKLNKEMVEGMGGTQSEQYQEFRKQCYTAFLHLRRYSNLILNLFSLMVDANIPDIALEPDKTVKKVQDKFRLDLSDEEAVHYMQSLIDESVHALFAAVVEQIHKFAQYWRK
Dual specificity mitogen-activated protein kinase kinase 2 (Homo sapiens), sequence (P36507 whole entry): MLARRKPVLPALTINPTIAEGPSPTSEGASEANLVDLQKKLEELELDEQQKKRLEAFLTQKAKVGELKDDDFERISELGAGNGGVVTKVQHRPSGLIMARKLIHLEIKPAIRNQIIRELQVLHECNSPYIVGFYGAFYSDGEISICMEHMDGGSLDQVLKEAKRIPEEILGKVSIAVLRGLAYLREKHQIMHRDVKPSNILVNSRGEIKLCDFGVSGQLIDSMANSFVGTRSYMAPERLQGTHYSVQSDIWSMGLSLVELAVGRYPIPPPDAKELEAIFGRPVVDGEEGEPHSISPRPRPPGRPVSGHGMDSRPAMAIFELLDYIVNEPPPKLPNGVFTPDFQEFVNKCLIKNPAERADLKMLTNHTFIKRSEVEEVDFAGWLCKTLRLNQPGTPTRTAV
5'-AMP-activated protein kinase catalytic subunit alpha-2 (Homo sapiens), sequence (P54646 whole entry, looked up): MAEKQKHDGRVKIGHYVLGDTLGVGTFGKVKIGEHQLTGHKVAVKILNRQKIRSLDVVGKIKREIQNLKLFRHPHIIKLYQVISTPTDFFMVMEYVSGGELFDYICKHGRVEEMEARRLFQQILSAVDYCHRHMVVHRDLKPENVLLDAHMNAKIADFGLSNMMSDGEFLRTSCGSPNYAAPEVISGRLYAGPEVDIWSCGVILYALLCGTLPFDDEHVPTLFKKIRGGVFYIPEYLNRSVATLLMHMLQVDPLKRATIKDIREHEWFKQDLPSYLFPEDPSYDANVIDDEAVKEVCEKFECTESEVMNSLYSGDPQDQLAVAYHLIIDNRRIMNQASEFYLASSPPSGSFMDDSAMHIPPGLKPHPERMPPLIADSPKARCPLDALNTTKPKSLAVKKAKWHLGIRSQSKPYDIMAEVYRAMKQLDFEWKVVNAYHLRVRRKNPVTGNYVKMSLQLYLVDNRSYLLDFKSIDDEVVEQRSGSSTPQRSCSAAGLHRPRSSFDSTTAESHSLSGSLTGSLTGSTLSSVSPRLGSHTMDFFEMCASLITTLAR
Discoidin domain-containing receptor 2 (Homo sapiens), sequence (Q16832 whole entry, the tested form may be a part): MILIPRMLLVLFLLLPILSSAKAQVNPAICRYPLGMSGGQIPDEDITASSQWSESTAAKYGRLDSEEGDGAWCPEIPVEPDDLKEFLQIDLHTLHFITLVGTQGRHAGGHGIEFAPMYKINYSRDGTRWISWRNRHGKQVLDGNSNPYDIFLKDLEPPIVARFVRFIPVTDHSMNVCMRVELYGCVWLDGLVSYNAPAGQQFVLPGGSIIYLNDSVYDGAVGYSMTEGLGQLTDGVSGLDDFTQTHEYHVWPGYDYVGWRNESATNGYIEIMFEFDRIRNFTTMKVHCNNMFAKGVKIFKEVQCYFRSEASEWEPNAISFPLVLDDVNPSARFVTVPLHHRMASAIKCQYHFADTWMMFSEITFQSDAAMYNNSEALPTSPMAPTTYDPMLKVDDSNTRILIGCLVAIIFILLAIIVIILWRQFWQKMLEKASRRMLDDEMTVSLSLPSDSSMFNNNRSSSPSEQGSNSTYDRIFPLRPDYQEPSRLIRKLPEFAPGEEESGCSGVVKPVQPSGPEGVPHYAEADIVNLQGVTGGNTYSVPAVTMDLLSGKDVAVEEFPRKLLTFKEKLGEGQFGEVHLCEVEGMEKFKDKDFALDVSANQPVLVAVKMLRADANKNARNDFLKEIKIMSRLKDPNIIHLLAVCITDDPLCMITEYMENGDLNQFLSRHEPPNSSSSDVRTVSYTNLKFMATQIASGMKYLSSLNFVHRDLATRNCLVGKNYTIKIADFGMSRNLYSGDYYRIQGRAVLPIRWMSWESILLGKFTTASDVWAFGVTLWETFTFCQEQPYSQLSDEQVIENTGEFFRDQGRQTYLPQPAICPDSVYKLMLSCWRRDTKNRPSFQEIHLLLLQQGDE
Phosphatidylinositol 4,5-bisphosphate 3-kinase catalytic subunit gamma isoform (Homo sapiens), sequence (P48736 whole entry, looked up, canonical isoform): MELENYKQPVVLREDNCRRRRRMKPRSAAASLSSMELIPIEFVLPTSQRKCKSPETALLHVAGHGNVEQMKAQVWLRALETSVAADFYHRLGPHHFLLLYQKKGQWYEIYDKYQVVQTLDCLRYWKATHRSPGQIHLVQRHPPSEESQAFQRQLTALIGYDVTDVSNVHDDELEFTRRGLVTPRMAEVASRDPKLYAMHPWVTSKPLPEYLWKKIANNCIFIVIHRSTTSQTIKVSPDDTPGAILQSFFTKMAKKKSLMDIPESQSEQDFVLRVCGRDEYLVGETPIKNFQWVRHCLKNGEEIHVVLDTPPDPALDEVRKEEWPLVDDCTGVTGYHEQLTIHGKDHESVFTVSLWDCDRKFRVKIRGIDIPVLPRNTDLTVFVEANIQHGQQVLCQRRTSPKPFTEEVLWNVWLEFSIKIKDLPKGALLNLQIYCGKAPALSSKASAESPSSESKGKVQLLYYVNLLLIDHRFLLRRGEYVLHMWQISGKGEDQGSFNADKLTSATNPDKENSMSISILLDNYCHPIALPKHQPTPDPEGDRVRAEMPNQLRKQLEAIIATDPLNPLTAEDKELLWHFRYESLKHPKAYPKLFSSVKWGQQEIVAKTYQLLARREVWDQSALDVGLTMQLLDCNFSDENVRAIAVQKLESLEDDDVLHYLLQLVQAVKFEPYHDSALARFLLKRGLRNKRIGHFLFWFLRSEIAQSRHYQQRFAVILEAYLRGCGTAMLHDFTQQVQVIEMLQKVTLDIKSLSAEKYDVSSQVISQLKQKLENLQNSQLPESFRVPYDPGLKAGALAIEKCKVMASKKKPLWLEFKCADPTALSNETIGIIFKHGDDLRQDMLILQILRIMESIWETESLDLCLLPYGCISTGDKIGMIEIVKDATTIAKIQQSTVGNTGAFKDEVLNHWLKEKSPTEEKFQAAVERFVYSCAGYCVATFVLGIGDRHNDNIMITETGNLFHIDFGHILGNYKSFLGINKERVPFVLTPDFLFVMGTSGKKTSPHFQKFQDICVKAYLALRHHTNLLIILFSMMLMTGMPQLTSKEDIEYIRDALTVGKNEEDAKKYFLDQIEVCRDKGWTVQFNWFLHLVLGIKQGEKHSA

CC1(C)OCc2c(Nc3n[nH]c4ccccc34)nc(-c3cn[nH]c3)nc21
inhibition [1]: 3.7% | inhibition [2]: -2.6% | inhibition [3]: 14.7% | inhibition [4]: 10.9% | inhibition [5]: 44.5% | inhibition [6]: 7.5% | inhibition [7]: 3.9% | inhibition [8]: 3.5% | inhibition [9]: 71.8% | inhibition [10]: 2.2% | inhibition [11]: 0.8% | inhibition [12]: 10.9% | inhibition [13]: 0.8% | inhibition (Homo sapiens): 4% | inhibition [14]: -1.3% | inhibition [15]: 4.9% | inhibition [16]: 5.1% | inhibition [17]: 23.4% | inhibition [18]: -0.5% | inhibition [19]: 0.8% | inhibition [20]: 0.3% | inhibition [21]: 18.8% | inhibition [22]: 0.7% | inhibition [23]: 12.8% | inhibition [24]: 7.4% | inhibition [25]: 4.2% | inhibition [26]: 2.5% | inhibition [27]: 5.4% | inhibition [28]: 12.7% | inhibition [29]: 1.1% | inhibition [30]: 1.6% | inhibition [31]: 15.1% | inhibition [32]: 12.3% | inhibition [33]: 54% | inhibition [34]: 3.1% | inhibition [35]: -0.6% | inhibition [36]: -3.5% | inhibition [37]: 12.9% | inhibition [38]: -2.4% | inhibition [39]: 2.7% | inhibition [40]: 3.3% | inhibition [41]: 22% | inhibition [42]: 14.1%
